Measurements taken from patent EP3705478B1, “TRIAZINE COMPOUND AND PHARMACEUTICALLY ACCEPTABLE SALT THEREOF” (Shenzhen Forward Pharmaceuticals Co., Ltd., priority 2017, dated 2018).
Where two headings read alike, the source gives them in different places.

Key:
[1] = system: NCI-H1975 (L858R/T790M double mutant EGFR); experiment: Test 3: Proliferation Test of L858R/T790M EGFR (double mutant) cells (Cell Titer-Glo); type: cell-based, human; conditions: for IC50: Homo sapiens, NCI-H1975 cells, 72 hours; for Ratio of IC50 value of Test 2 to that of Test 3: selectivity: wild-type EGFR cells vs L858R/T790M EGFR (double mutant) cells
Experimental: (§1) NCI-H1975 cells are cultured in RPMI1640 medium containing 10% fetal bovine serum and 2 mM glutamine. Cells are grown in a humidified incubator with 5% CO2 at 37°C.
(§2) The number of viable cells in the culture is determined according to the protocol described in Cell Titer-Glo Luminescent cell Viability Assay (Promega catalog number: # G7570) of Promega company. 90 µl of cells (8000 cells/well) are cultured in growth medium in a Corning 96-well plate with black transparent bottom, culturing in a humidified incubator with 5% CO2 at 37°C overnight. The compound serially diluted in 100% DMSO is added to the cells by pipette, culturing the cells for another 72 hours. 100 µl of the mixed Cell Titer-Glo reagent is added to the cells in the 96-well culture plate to lyse the cells, mixing gently. Subsequently, the […] is detected on the Envision microplate detector to obtain data of the compound. Finally, the data is input into a suitable software package (such as Prism) for curve fitting analysis.

[2] = system: A431 (wild-type EGFR); experiment: Test 2: Proliferation Test of Wild-type EGFR Cells (Cell Titer-Glo); type: cell-based; conditions: Homo sapiens, read-out: IC50 value, Test 2
Experimental: The human […] cell line A431 (wild-type EGFR) is obtained from the American Type Culture Collection. […] cells are cultured in RPMI1640 medium containing 10% fetal bovine serum and 2 mM glutamine. Cells are grown in a humidified incubator with 5% CO2 at 37°C.
as §2

[3] = target: T1, L858R/T790M EGFR (double mutant) (Homo sapiens, UniProt P00533, L858R/T790M); experiment: Test 1: Phosphorylation Test of L858R/T790M EGFR (double mutant) Cells (phospho-EGFR ELISA); type: cell-based; conditions: NCI-H1975 cells, p-EGFR in cell lysate, compound incubation 2 hours
T1 construct: The detection of phosphorylated p-EGFR of endogenous cells in cell lysate; host or cells: NCI-H1975
T1 sequence (P00533 25-1210 T790M/L858R): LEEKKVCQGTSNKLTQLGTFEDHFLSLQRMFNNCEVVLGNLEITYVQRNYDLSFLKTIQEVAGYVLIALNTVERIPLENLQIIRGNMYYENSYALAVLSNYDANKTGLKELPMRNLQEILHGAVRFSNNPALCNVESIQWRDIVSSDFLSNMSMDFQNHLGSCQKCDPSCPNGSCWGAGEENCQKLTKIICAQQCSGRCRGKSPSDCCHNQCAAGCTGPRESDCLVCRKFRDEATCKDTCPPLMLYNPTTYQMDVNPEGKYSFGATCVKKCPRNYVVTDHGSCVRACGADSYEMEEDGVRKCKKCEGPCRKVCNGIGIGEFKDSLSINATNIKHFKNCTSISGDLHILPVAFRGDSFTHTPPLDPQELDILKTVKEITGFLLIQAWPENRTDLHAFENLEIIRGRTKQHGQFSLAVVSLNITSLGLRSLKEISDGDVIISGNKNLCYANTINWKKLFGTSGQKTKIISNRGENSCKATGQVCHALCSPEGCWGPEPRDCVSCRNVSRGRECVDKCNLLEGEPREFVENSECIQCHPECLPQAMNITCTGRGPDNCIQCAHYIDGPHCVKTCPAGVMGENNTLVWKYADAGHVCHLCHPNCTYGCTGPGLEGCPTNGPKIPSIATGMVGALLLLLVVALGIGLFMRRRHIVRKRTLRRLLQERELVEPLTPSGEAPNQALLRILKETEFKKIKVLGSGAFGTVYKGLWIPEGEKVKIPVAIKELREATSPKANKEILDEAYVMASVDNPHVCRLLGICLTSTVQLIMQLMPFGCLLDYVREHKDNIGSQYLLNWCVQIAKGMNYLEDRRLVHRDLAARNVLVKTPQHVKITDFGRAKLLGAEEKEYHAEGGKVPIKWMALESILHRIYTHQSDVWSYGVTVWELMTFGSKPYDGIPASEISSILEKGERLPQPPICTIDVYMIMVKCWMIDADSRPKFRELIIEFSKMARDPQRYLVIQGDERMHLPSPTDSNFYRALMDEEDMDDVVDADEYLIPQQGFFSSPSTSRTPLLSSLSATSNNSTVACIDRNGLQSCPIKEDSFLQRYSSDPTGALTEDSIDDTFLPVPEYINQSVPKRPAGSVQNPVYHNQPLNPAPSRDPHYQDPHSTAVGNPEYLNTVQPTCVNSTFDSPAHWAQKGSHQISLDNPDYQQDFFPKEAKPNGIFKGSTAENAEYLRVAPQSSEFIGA
Experimental: as §1
The detection of phosphorylated p-EGFR of endogenous cells in cell lysate is performed according to the protocol described in the DuoSet IC Human Phospho-EGFR ELISA (R&D Systems catalog number: # DYC1095) of R&D Systems Company. 90 µl of cells (8000 cells/well) are cultured in growth medium in a Corning 96-well plate with black transparent bottom, after culturing in a humidified incubator with 5% CO2 at 37°C overnight, the cell culture medium is replaced with RPMI1640 medium containing 1% fetal bovine serum and 2 mM glutamine to culture continuously. The compound serially diluted in 100% DMSO is added to the cells by pipette, and after gently mixing the medium, the cells are incubated for another 2 hours. 100 µl of 1X lysis buffer is added to each well. Greiner high-binding 96-well plates are coated with capture antibody, and then blocked with 3% BSA. After removing the blocking solution, 100 µl of lysate is transferred to a Greiner high-binding 96-well plate, then incubating for 2 hours. After gently mixing and washing the culture plate with PBS, 100 µl of detection antibody is added, then incubating for 2 hours. […] 100 µl of stop solution is added to the culture plate, and the absorbance of each well at 450 nm wavelength is measured. Finally, the data is input into a suitable software package (such as Prism) for curve fitting analysis.

[4] = system: Ba/F3-CAT-EGFR (wild-type EGFR) cells; experiment: Test 4: Proliferation Test of BalF3-CAT-EGFR cells (Cell Titer-Glo); type: cell-based; conditions: 72 hours
Source text: (§3) BalF3-CAT-EGFR cell viability detection is based on the detection technology developed by CellTiter-Glo®. BalF3 cells are transformed by overexpressing the intracellular kinase region of wild-type EGFR to construct a CAT-EGFR tool cell strain. This cell strain lives depending on the kinase activity of EGFR, if the wild-type EGFR is inhibited by a small molecule compound, the cell strain will die. Therefore, the specificity and activity of EGFR small molecules on wild-type EGFR may be evaluated by observing the effect of EGFR small molecules on cell viability.
Ba/F3-CAT-EGFR (wild-type EGFR) cells are cultured in RPMI1640 medium containing 10% fetal bovine serum and 2 mM glutamine. Cells are grown in a humidified incubator with 5% CO2 at 37°C.
as §2, with “100” for “90”, “(3000” for “(8000”

[5] = system: BalF3-DTM-EGFR (mutant EGFR) cells; experiment: Test 5: Proliferation Test of Ba/F3-DTM-EGFR cells (Cell Titer-Glo); type: cell-based; conditions: for Inhibitory selectivity of the compound, Ratio of IC50 value of Test 4 to IC50 value of Test 5: Ba/F3-CAT-EGFR vs Ba/F3-DTM-EGFR cells; for IC50: Ba/F3-DTM-EGFR cells (T790M mutation and Exon19-deficient EGFR), 72 hours
Experimental: as §3, with “Ba/F3-DTM-EGFR” for “BalF3-CAT-EGFR”, “BalF3 cells are transformed by overexpressing the intracellular kinase region of wild-type EGFR to construct a CAT-EGFR tool cell strain.” left out, “mutant” for “wild-type”
BalF3-DTM-EGFR (mutant EGFR) cells are cultured in RPMI1640 medium containing 10% fetal bovine serum and 2 mM glutamine. Cells are grown in a humidified incubator with 5% CO2 at 37°C.
as §2, with “100” for “90”, “(3000” for “(8000”

[6] = Test 6: Test of Plasma Protein Binding Rate (equilibrium dialysis), mouse plasma; type: in vitro ADME; conditions: equilibrium dialysis at 37°C for 4 hours, read-out: % Unbound of mouse plasma sample in Test 6
Experimental: (§4) The test of plasma protein binding rate is performed by using the 96-well equilibrium dialysis device from HTDialysis Company. The human plasma samples or mouse plasma samples with a concentration of 2 µM for the test and control compounds are performed equilibrium dialysis at 37°C for 4 hours so as to conduct the protein binding study. 150 µL of plasma sample with the test compound is added to the administration end of each dialysis well, and 150 µL of blank dialysis buffer is added to the receiving end corresponding to the dialysis well. The dialysis plate is then placed in a humidified incubator with 5% CO2 to incubate at 37°C for 4 hours. After dialysis, 50 µL of the dialyzed buffer sample and the dialyzed plasma sample are transferred to a new 96-well plate (sample receiving plate). The corresponding volume of corresponding blank plasma or buffer is added to the sample. All samples are analyzed by LC/MS/MS after protein precipitation. The concentration of the sample is expressed as the ratio of the peak area of the compound to the internal standard substance (semi-quantitative). Finally, the % Unbound, % Bound, and % Recovery of the compound are calculated according to the formula.

[7] = Test 6: Test of Plasma Protein Binding Rate (equilibrium dialysis), human plasma; type: in vitro ADME; conditions: equilibrium dialysis at 37°C for 4 hours, read-out: % Unbound of human plasma sample in Test 6
Experimental: as §4

[8] = A-431, wild-type EGFR cells, 72 hours

SMILES: C=CC(=O)Nc1cc(Nc2ncnc(-n3ccc4ncccc43)n2)c(OC)cc1N(C)CCN(C)C [Compound 6, N-(5-((4-(1H-pyrrolo[3,2-b]pyridin-1-yl)-1,3,5-triazin-2-yl)amino)-2-((2-(dimethylamino)ethyl)(methyl)amino)-4-methoxyphenyl)acrylamide]
- IC50 [1]: 3 nM
- Ratio of IC50 value of Test 2 to that of Test 3 [1]: 193
- IC50 [2, 8]: 579 nM
- IC50 [3]: 15.1 nM

SMILES: C=CC(=O)Nc1cc(Nc2ncnc(-c3cnc4c(C)cccn34)n2)c(OC)cc1N(C)CCN(C)C [Compound 26, N-(2-((2-(dimethylamino)ethyl)(methyl)amino)-4-methoxy-5-((4-(8-methylimidazolo[1,2-a]pyridin-3-yl)-1,3,5-triazin-2-yl)amino)phenyl)acrylamide]
- IC50 [4]: > 10000 nM
- IC50 [1]: 4 nM
- Ratio of IC50 value of Test 2 to that of Test 3 [1]: 179.5
- IC50 [2, 8]: 718 nM
- Inhibitory selectivity of the compound, Ratio of IC50 value of Test 4 to IC50 value of Test 5 [5]: >2702.70
- IC50 [5]: 3.7 nM
- IC50 [3]: 12.1 nM

SMILES: C=CC(=O)Nc1cc(Nc2ncnc(-c3cnc4c(C(F)(F)F)cccn34)n2)c(OC)cc1N(C)CCN(C)C [Compound 28, N-(2-((2-(dimethylamino)ethyl)(methyl)amino)-4-methoxy-5-((4-(8-(trifluoromethyl)imidazolo[1,2-a]pyridin-3-yl)-1,3,5-triazin-2-yl)amino)phenyl)acrylamide]
- IC50 [4]: > 10000 nM
- IC50 [1]: 4 nM
- Ratio of IC50 value of Test 2 to that of Test 3 [1]: 189.5
- IC50 [2, 8]: 758 nM
- Inhibitory selectivity of the compound, Ratio of IC50 value of Test 4 to IC50 value of Test 5 [5]: >2500.00
- IC50 [5]: 4 nM
- IC50 [3]: 11.4 nM

SMILES: C=CC(=O)Nc1cc(Nc2ncnc(-n3nc(C)c4ccc(F)cc43)n2)c(OC)cc1N(C)CCN(C)C [Compound 20, N-(2-((2-(dimethylamino)ethyl)(methyl)amino)-5-((4-(6-fluoro-3-methyl-1H-indazol-1-yl)-1,3 ,5-triazin-2-yl)amino)-4-methoxyphenyl)acrylamide]
- IC50 [4]: > 10000 nM
- Inhibitory selectivity of the compound, Ratio of IC50 value of Test 4 to IC50 value of Test 5 [5]: > 1851.85
- IC50 [5]: 5.4 nM

SMILES: C=CC(=O)Nc1cc(Nc2ncnc(N3CC(C)(C)c4ncccc43)n2)c(OC)cc1N(C)CCN(C)C [Compound 11, N-(5-((4-(3,3-dimethyl-2,3-dihydro-1H-pyrrolo[3,2-b]pyridin-1-yl)-1,3,5-triazin-2-yl)amino)-2-((2-(dimethylamino)ethyl)(methyl)amino)-4-methoxyphenyl)acrylamide]
- fraction unbound at 4 h, 2 µM [6]: 0.077
- IC50 [4]: > 10000 nM
- Inhibitory selectivity of the compound, Ratio of IC50 value of Test 4 to IC50 value of Test 5 [5]: >2941.18
- IC50 [5]: 3.4 nM
- IC50 [3]: 11.1 nM
- fraction unbound at 4 h, 2 µM [7]: 0.107

SMILES: C=CC(=O)Nc1cc(Nc2ncnc(-n3nc(F)c4ccccc43)n2)c(OC)cc1N(C)CCN(C)C [Compound 29, N-(2-((2-(dimethylamino)ethyl)(methyl)amino)-5-((4-(3-fluoro-1H-indazol-1-yl)-1,3,5-triazin-2-yl)amino)-4-methoxyphenyl)acrylamide]
- IC50 [4]: > 10000 nM
- IC50 [1]: 4 nM
- Ratio of IC50 value of Test 2 to that of Test 3 [1]: 235.3
- IC50 [2, 8]: 941 nM
- Inhibitory selectivity of the compound, Ratio of IC50 value of Test 4 to IC50 value of Test 5 [5]: >2222.22
- IC50 [5]: 4.5 nM
- IC50 [3]: 10.6 nM

SMILES: C=CC(=O)Nc1cc(Nc2nccc(-c3cn(C)c4ccccc34)n2)c(OC)cc1N(C)CCN(C)C [Osimertinib (AZD9291), Osimertinib, reference compound]
- fraction unbound at 4 h, 2 µM [6]: 0.005
- IC50 [4]: 3120 nM
- IC50 [5]: 7.1 nM
- fraction unbound at 4 h, 2 µM [7]: 0.025

SMILES: C=CC(=O)Nc1cc(Nc2ncnc(-n3cc(C)c4cnccc43)n2)c(OC)cc1N(C)CCN(C)C [Compound 18, N-(2-((2-(dimethylamino)ethyl)(methyl)amino)-4-methoxy-5-((4-(3-methyl-1H-pyrrolo[3,2-c)pyridin-1-yl)-1,3,5-triazin-2-yl)amino)phenyl)acrylamide]
- IC50 [4]: > 10000 nM
- Inhibitory selectivity of the compound, Ratio of IC50 value of Test 4 to IC50 value of Test 5 [5]: > 1923.08
- IC50 [5]: 5.2 nM

SMILES: C=CC(=O)Nc1cc(Nc2ncnc(-c3cnc4c(F)cccn34)n2)c(OC)cc1N(C)CCN(C)C [Compound 27, N-(2-((2-(dimethylamino)ethyl)(methyl)amino)-5-((4-(8-fluoroimidazolo[1,2-a]pyridin-3-yl)-1 ,3,5-triazin-2-yl)amino)-4-methoxyphenyl)acrylamide]
- IC50 [4]: > 10000 nM
- IC50 [1]: 5 nM
- Ratio of IC50 value of Test 2 to that of Test 3 [1]: 176.6
- IC50 [2, 8]: 883 nM
- Inhibitory selectivity of the compound, Ratio of IC50 value of Test 4 to IC50 value of Test 5 [5]: >3125.00
- IC50 [5]: 3.2 nM
- IC50 [3]: 11.8 nM
